Laboratory results: US20150328199A1, “METHODS AND COMPOSITIONS USING 4-AMINO-2-(2,6-DIOXO-PIPERIDINE-3-YL)-ISOINDOLINE-1,3-DIONE FOR TREATMENT OF CANCERS” (Celgene Corporation, priority 2014, published 2015)

Assays:
[1] = Comparative population pharmacokinetic analysis of pomalidomide with thalidomide and lenalidomide (two-compartment PPK model); type: in vivo, human; conditions: for drug exposure in central (plasma) compartment, patients versus healthy subjects: FIG. 7A, 8A; for drug exposure in peripheral compartment, patients versus healthy subjects: FIG. 7B, 8B; for relation of disease stage and peripheral compartment exposure in patients: FIG. 9
Excerpt: Population pharmacokinetic analysis of pomalidomide was compared with that of 2-(2,6-dioxopiperidin-3-yl)-1H-isoindole-1,3(2H)-dione (“thalidomide”) and 3-(4-amino-1-oxo-1,3-dihydro-2H-isoindo1-2-yl)piperidine-2,6-dione (“lenalidomide” also known as “Revlimid”), on available data from healthy subjects and MM patients. The results of analyses are provided in Table 7 and FIGS. 3A to FIGS. 9. FIGS. 3A and 3B provide concentration vs. time profiles for thalidomide, lenalidomide and pomalidomide.
The data of thalidomide and revlimid are based on a population pharmacokinetic analysis performed on data from studies using a two-compartment PPK model.

[2] = Clinical pharmacokinetics of pomalidomide after single oral dose (non-compartmental analysis); type: in vivo, human
Method: Pomalidomide is absorbed with a maximum plasma concentration (Cmax) at a median time (tmax) between 2 hours and 3 hours after clinically relevant doses. Pomalidomide is >73% absorbed following administration of a single oral dose. […] Based on non-compartmental analysis, mean (percent coefficient of variation [%CV]) apparent volume of distribution (Vz/F) of pomalidomide after a single dose ranges from 74 L (20%) to 138 L (30%) across a dose range of 1 mg to 10 mg. Pomalidomide is extensively metabolized via multiple metabolic pathways and is eliminated in human via multiple pathways.

| drug exposure in central (plasma) compartment, patients versus healthy subjects [1] | drug exposure in peripheral compartment, patients versus healthy subjects [1] | CL/F ([1]; HNV (healthy subjects)) [L/h] | KA ([1]; HNV (healthy subjects)) [h⁻¹] | Q/CL ([1]; HNV (healthy subjects)) [%] | Q/F ([1]; HNV (healthy subjects)) [L/h] | Relative Potential of Deep Penetration ([1]; HNV (healthy subjects)) [%] | V2/F ([1]; HNV (healthy subjects)) [L] | V3/F ([1]; HNV (healthy subjects)) [L] | V3/V2 ([1]; HNV (healthy subjects)) [%] | Tlag ([1]; HNV (healthy subjects)) [h] | CL/F ([1]; Patients (MM)) [L/h] | Q/CL ([1]; Patients (MM)) [%] | Q/F ([1]; Patients (MM)) [L/h] | Tlag ([1]; Patients (MM)) [h] | Compound | also measured |
| --- | --- | --- | --- | --- | --- | --- | --- | --- | --- | --- | --- | --- | --- | --- | --- | --- |
| comparable | comparable | 9.66 | 0.536 | 4 | 0.355 | 0.6 | 83.3 | 13.5 | 16 |  |  |  |  |  | O=C1CCC(N2C(=O)c3ccccc3C2=O)C(=O)N1 (stereo not drawn) [Thalidomide, 2-(2,6-dioxopiperidin-3-yl)-1H-isoindole-1,3(2H)-dione] |  |
| comparable | comparable | 16.8 | 5.41 | 12.7 | 2.14 | 2.1 | 56.5 | 9.49 | 16.8 | 0.25 | 10.2 | 11.1 | 1.13 | 0.235 | Nc1cccc2c1CN(C1CCC(=O)NC1=O)C2=O (stereo not drawn) [Revlimid, 3-(4-amino-1-oxo-1,3-dihydro-2H-isoindo1-2-yl)piperidine-2,6-dione] | Relative Potential of Deep Penetration ([1]; Patients (MM)): 1.9%; V2/F ([1]; Patients (MM)): 48.3 L; V3/F ([1]; Patients (MM)): 8.36 L; V3/V2 ([1]; Patients (MM)): 17.3% |
| comparable | higher drug exposure | 8.52 | 1.25 | 11.8 | 1.01 |  |  |  |  | 0.385 | 7.78 | 48 | 3.75 | 0.206 | Nc1cccc2c1C(=O)N(C1CCC(=O)NC1=O)C2=O (stereo not drawn) [Pomalidomide, 4-amino-2-(2,6-dioxo-piperidine-3-yl)-isoindoline-1,3-dione] | relation of disease stage and peripheral compartment exposure in patients [1]: higher disease stage were correlated with higher peripheral compartment pomalidomide exposure; relation of disease stage and peripheral compartment exposure in patients ([1]; listed as 4-amino-2-(2,6-dioxo-piperidine-3-yl)-isoindoline-1,3-dione): higher disease stage was correlated with higher peripheral compartment; KA ([1]; Patients (MM)): 1.25 h⁻¹; Tmax ([2]; human, plasma, oral, after clinically relevant doses, read-out: median time (tmax) of maximum plasma concentration): 2 to 3 h; half-life ([2]; human, plasma, oral, read-out: geometric mean terminal half-life (t1/2) (converted)): ~7.5 h; Cmax versus dose ([2]; single dose): less than dose proportional; systemic exposure (AUC) versus dose ([2]; single dose): approximately dose-proportional; absorbed ([2]; single oral dose): > 73% |
